Assay results published in patent US20220024921A1, “1,3,4-OXADIAZOLONE COMPOUND AND PHARMACEUTICAL” (NIPPON SHINYAKU CO., LTD., priority 2018, published 2022).
Counter-ions that a name gives are not always drawn.

Columns and labels:
[1] = target: PIM1 transgenic cells (Ba/F3) (Homo sapiens, UniProt P11309); test: Proliferation inhibitory effect on PIM1 transgenic cells; assay type: cell-based, mouse; details: proliferation inhibition, 72 hours, Cell Counting Kit-8, read-out: PIM1 IC50
In short: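 Mouse Ba/F3 pro-B cells were retrovirally transduced with human PIM1 so that their proliferation depends on PIM1. Cells were treated with compound at 1–10000 nM final for 72 h, then read by CCK-8 (OD450−OD650). Inhibition was set against DMSO (0%) and no-cell blank (100%), and IC50 was obtained by two-parameter logistic regression.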

[2] = target: T1, PIM1 serine/threonine kinase (Homo sapiens, UniProt P11309); test: PIM1 serine/threonine kinase inhibitory effect; assay type: biochemical; details: PIM1 serine/threonine kinase activity; ATP 40 μM; 30° C., 30 minutes
T1 construct: purchased Carna Bioscience, Inc
T1 sequence (P11309 whole entry): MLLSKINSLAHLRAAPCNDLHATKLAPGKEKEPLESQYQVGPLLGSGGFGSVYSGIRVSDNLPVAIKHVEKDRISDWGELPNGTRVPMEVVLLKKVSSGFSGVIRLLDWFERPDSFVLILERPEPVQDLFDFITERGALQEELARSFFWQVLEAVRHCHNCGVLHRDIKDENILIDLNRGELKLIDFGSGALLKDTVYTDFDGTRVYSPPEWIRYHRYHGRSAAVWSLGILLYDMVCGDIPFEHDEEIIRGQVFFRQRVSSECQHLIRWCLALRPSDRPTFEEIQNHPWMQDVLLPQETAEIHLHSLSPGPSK
In short: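 Recombinant PIM1 (0.15 μg/ml final) with 0.5 μM biotinylated substrate and 40 μM ATP in pH 7.0 HEPES/MgCl2 buffer, 30 min at 30° C. Compound range was 0.01–10000 nM final, n=2. HTRF detection with streptavidin-XL665 and anti-phospho antibody-cryptate, 1 h; IC50 from non-linear regression of the 665/620 ratio.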

Chain of PIM1 transgenic cells (Ba/F3) (P11309 whole entry, stated change not applied): as the sequence (P11309 whole entry) above

Structure (SMILES) | GI50 [1] | IC50 [2]
C[C@H](Nc1cc(-c2n[nH]c(=O)o2)ccc1C(F)(F)F)C1CC2(CCNCC2)C1 [Example 142, 5-[3-{[(1S)-1-(7-azaspiro[3.5]nonan-2-yl)ethyl]amino}-4-(trifluoromethyl)phenyl]-1,3,4-oxadiazol-2(3H)-one hydrochloride] | 220 nM | 11 nM
CC(CCCCN)Nc1cc(-c2n[nH]c(=O)o2)ccc1C(F)(F)F (stereo not drawn) [Example 5, 5-{3-[(6-aminohexan-2-yl)amino]-4-(trifluoromethyl)phenyl}-1,3,4-oxadiazol-2(3H)-one hydrochloride] | 500 nM | 11 nM
O=c1[nH]nc(-c2ccc(C(F)(F)F)c(CCC3CCNCC3)c2)o1 [Example 26, 5-{3-[2-(piperidin-4-yl)ethyl]-4-(trifluoromethyl)phenyl}-1,3,4-oxadiazol-2(3H)-one hydrochloride] | 910 nM | 12 nM
O=c1[nH]nc(-c2ccc(C(F)(F)F)c(N[C@@H](C(F)F)C3CCNCC3)c2)o1 [Example 113, 5-[3-{[(1R)-2,2-difluoro-1-(piperidin-4-yl)ethyl]amino}-4-(trifluoromethyl)phenyl]-1,3,4-oxadiazol-2(3H)-one hydrochloride] | 81 nM | 3.6 nM
C[C@H](Nc1cc(-c2n[nH]c(=O)o2)c(F)cc1Cl)C1CCNCC1 [Example 95, 5-(4-chloro-2-fluoro-5-{[(1S)-1-(piperidin-4-yl)ethyl]amino}phenyl)-1,3,4-oxadiazol-2(3H)-one hydrochloride] | 590 nM | 11 nM
O=c1[nH]nc(-c2ccc(C(F)(F)F)c(NC[C@@H]3C[C@H]4CC[C@@H](C3)N4)c2)o1 [Example 135, 5-[3-({[(1R,3s,5S)-8-azabicyclo[3.2.1]octan-3-yl]methyl}amino)-4-(trifluoromethyl)phenyl]-1,3,4-oxadiazol-2(3H)-one hydrochloride] | 3500 nM | 29 nM
O=c1[nH]nc(-c2cc(NCC3(F)CCNCC3)c3cn[nH]c3c2)o1 [Example 116, 5-(4-{[(4-fluoropiperidin-4-yl)methyl]amino}-1H-indazol-6-yl)-1,3,4-oxadiazol-2(3H)-one hydrochloride] | 4200 nM | 4.3 nM
N[C@@H]1CCCN(CCNc2cc(-c3n[nH]c(=O)o3)ccc2C(F)(F)F)C1 [Example 72, 5-[3-({2-[(3R)-3-aminopiperidin-1-yl]ethyl}amino)-4-(trifluoromethyl)phenyl]-1,3,4-oxadiazol-2(3H)-one dihydrochloride] | 920 nM | 8.4 nM
CC1(C)[C@H](CNc2cc(-c3n[nH]c(=O)o3)ccc2C(F)(F)F)C[C@@H]1N [Example 166, 5-[3-({[(1R,3S)-3-amino-2,2-dimethylcyclobutyl]methyl}amino)-4-(trifluoromethyl)phenyl]-1,3,4-oxadiazol-2(3H)-one hydrochloride] | 26 nM | 2.3 nM
O=c1[nH]nc(-c2ccc(C(F)(F)F)c(N[C@@H](CF)C3CCNCC3)c2)o1 [Example 152, 5-[3-{[(1R)-2-fluoro-1-(piperidin-4-yl)ethyl]amino}-4-(trifluoromethyl)phenyl]-1,3,4-oxadiazol-2(3H)-one hydrochloride] | 57 nM | 3.3 nM
C[C@@H]1C[C@H]([C@H](C)Nc2cc(-c3n[nH]c(=O)o3)cc(F)c2OC(F)F)CCN1 [Example 216, 5-[4-(difluoromethoxy)-3-fluoro-5-({(1S)-1-[(2R,4R)-2-methylpiperidin-4-yl]ethyl}amino)phenyl]-1,3,4-oxadiazol-2(3H)-one] | 45 nM | 3.5 nM
CC(C)(CN)C1CCN(c2cc(-c3n[nH]c(=O)o3)ccc2C(F)(F)F)CC1 [Example 13, 5-{3-[4-(1-amino-2-methylpropan-2-yl)piperidin-1-yl]-4-(trifluoromethyl)phenyl}-1,3,4-oxadiazol-2(3H)-one] | 540 nM | 30 nM
